Experimental data taken from patent publication US20240279220A1, “INDOLE COMPOUNDS AND METHODS OF USE” (Genzyme Corporation, priority 2021, published 2024).

The compounds below were run on NBD1/3D (assay: Aggregation analysis using differential static light scattering (DSLS), NBD1 thermal stability). Settings: ΔTagg versus DMSO control; compound at 100 μM.
Assay type: binding, Human
Protocol: Purified recombinant NBD1 was produced using previously described methods (A. Schmidt, J. L. Mendoza, P. J. Thomas (2011) Biochemical and Biophysical Approaches to Probe CFTR Structure (365-376) M. D. Amaral, K. Kunzelmann (eds.), Cystic Fibrosis, Methods in Molecular Biology 741, Springer Science+Business Media). The effect of test compounds on thermal stability of NBD1 was evaluated by differential static light scattering (DSLS) using the Harbinger Stargazer-384 instrument (Epiphyte Three, Toronto, Canada).
Test compounds were dissolved and diluted to desired concentrations in 100% DMSO. The compounds or DMSO controls (100 nL) were stamped into wells of a […] low volume optical plate (Corning Inc., Corning, NY) using the Echo 555 acoustic liquid handler (Labcyte Inc., San Jose, CA).
NBD1 protein was diluted to 0.2 mg/ml in S200 buffer (50 mM Tris-HCl, 150 mM NaCl, 5 mM MgCl2, 2 mM ATP, 2 mM DTT, pH7.6) containing 1% glycerol. 10 uL of protein solution was aliquoted into the 384-well plate harboring the test compounds and 10 uL mineral oil was overlayed onto the protein solution, using the epMotion robotic liquid handler (Eppendorf North America, Hauppauge, NY). After placing into the Stargazer instrument, the plate was heated at 1° C. per minute to 70° C. Images were captured from 25° C. to 70° C. every 0.5° C. At the end of the experiment run, instrument software integrated image files and analyzed data automatically. A […] regression curve was generated for each well, representing the increase in light scattering over time. A temperature of aggregation (Tagg) was calculated based on the inflection point of the curve. To better compare data across experiments the average Tagg for DMSO control wells was calculated and subtracted from values for wells containing compounds to obtain a “ΔTagg” value. These ΔTagg values reflect stabilizing efficacy of the compounds.

| SMILES | DSLS NBD1/3D Human Stability delta-T (° C.) @ 100 (μM) |
| --- | --- |
| O=C(O)CCc1cc(F)cc(Cc2c[nH]c(-c3cc(Oc4c(F)cc5[nH]ccc5c4F)ccc3F)n2)c1 [Example 114, 3-(3-((2-(5-((4,6-difluoro-1H-indol-5-yl)oxy)-2-fluorophenyl)-1H-imidazol-4-yl)methyl)-5-fluorophenyl)propanoic acid] | B (B: 5-10° C.) |
| [2H]C([2H])([2H])C(C#N)(c1cc(F)cc(CCC(=O)O)c1)c1c[nH]c(-c2cc(Oc3c(F)c(F)c4[nH]ccc4c3F)ccc2F)n1 (single isomer, unassigned) [Example 65, 3-(3-(1-cyano-1-(2-(2-fluoro-5-((4,6,7-trifluoro-1H-indol-5-yl)oxy)phenyl)-1H-imidazol-4-yl)ethyl-2,2,2-d3)-5-fluorophenyl)propanoic acid] | B (B: 5-10° C.) |
| COC(=O)/C=C/c1cccc(Cn2ccc(-c3cccc(Oc4ccc5[nH]ccc5c4CO)c3)n2)c1 [Example 7, Methyl (E)-3-(3-((3-(3-((4-(hydroxymethyl)-1H-indol-5-yl)oxy)phenyl)-1H-pyrazol-1-yl)methyl)phenyl)acrylate] | C (C: ≤5° C.) |
| COC(c1cccc(CCC(=O)O)c1)c1cnc(-c2cc(Oc3c(F)cc4[nH]ccc4c3C)ccc2F)[nH]1 (stereo not drawn) [Example 237, 3-(3-((2-(2-fluoro-5-((6-fluoro-4-methyl-1H-indol-5-yl)oxy)phenyl)-1H-imidazol-5-yl)(methoxy)methyl)phenyl) propanoic acid] | B (B: 5-10° C.) |
| C[S+]([O-])c1c(Oc2cccc(-c3ncn(Cc4cccc(CCC(=O)O)c4)n3)c2)c(F)cc2[nH]ccc12 (stereo not drawn) [Example 33, 3-(3-((3-(3-((6-Fluoro-4-(methylsulfinyl)-1H-indol-5-yl)oxy)phenyl)-1H-1,2,4-triazol-1-yl)methyl)phenyl)propanoic acid] | B (B: 5-10° C.) |
| CC(c1nnc(-c2cc(Oc3c(F)cc4[nH]ccc4c3F)ccc2F)[nH]1)c1cccc(CCC(=O)O)c1F (single isomer, unassigned) [Example 252B, 3-(3-(1-(5-(5-((4,6-difluoro-1H-indol-5-yl)oxy)-2-fluorophenyl)-4H-1,2,4-triazol-3-yl)ethyl)-2-fluorophenyl)propanoic acid] | C (C: ≤5° C.) |
| CC(O)(c1cccc(CCC(=O)O)c1)c1c[nH]c(-c2cc(Oc3c(F)cc4[nH]ccc4c3C3CC3)ccc2F)n1 (stereo not drawn) [Example 193, 3-(3-(1-(2-(5-((4-cyclopropyl-6-fluoro-1H-indol-5-yl)oxy)-2-fluorophenyl)-1H-imidazol-4-yl)-1-hydroxyethyl)phenyl) propanoic acid] | B (B: 5-10° C.) |
| Cc1c(Oc2ccc(F)c(-c3ncc(C4(c5cccc(CCC(=O)O)c5)CCN(CC(F)(F)F)CC4)[nH]3)c2)c(F)cc2[nH]ccc12 [Example 168, 3-(3-(4-(2-(2-fluoro-5-((6-fluoro-4-methyl-1H-indol-5-yl)oxy)phenyl)-1H-imidazol-5-yl)-1-(2,2,2-trifluoroethyl)piperidin-4-yl)phenyl)propanoic acid] | B (B: 5-10° C.) |
| CCc1c(Oc2cccc(-c3ncc(C(O)c4cccc(CCC(=O)O)c4)[nH]3)c2)ccc2[nH]ccc12 (stereo not drawn) [Example 183, 3-(3-((2-(3-((4-Ethyl-1H-indol-5-yl)oxy)phenyl)-1H-imidazol-5-yl)(hydroxy)methyl)phenyl)propanoic acid] | B (B: 5-10° C.) |
| Cc1c(Oc2cccc(-c3nn(Cc4cccc(CCC(=O)O)c4)cc3F)c2)c(F)cc2[nH]ccc12 [Example 19, 3-(3-((4-Fluoro-3-(3-((6-fluoro-4-methyl-1H-indol-5-yl)oxy)phenyl)-1H-pyrazol-1-yl)methyl)phenyl)propanoic acid] | C (C: ≤5° C.) |
| CO[C@]1(C)C[C@@](c2cccc(CCC(=O)O)c2)(c2cnc(-c3cc(Oc4c(F)c(F)c5[nH]ccc5c4S(C)(=O)=O)ccc3F)[nH]2)C1 [Example 70, rac-3-(3-((1r,3r)-1-(2-(5-((6,7-Difluoro-4-(methylsulfonyl)-1H-indol-5-yl)oxy)-2-fluorophenyl)-1H-imidazol-5-yl)-3-methoxy-3-methylcyclobutyl)phenyl)propanoic acid] | A (A: T ≥ 10° C.) |
| O=C(O)CCc1cccc(C2(c3cnc(-c4cc(Oc5c(F)cc6[nH]ccc6c5F)ccc4F)[nH]3)CCOC2)c1 (stereo not drawn) [Example 150, 3-(3-(3-(2-(5-((4,6-difluoro-1H-indol-5-yl)oxy)-2-fluorophenyl)-1H-imidazol-5-yl)tetrahydrofuran-3-yl)phenyl)propanoic acid] | A (A: T ≥ 10° C.) |
| O=C(O)CCc1cccc(Cc2nnc(-c3cc(Oc4c(F)cc5[nH]ccc5c4F)ccc3F)[nH]2)c1 [Example 240, 3-(3-((5-(5-((4,6-difluoro-1H-indol-5-yl)oxy)-2-fluorophenyl)-4H-1,2,4-triazol-3-yl)methyl)phenyl) propanoic acid] | B (B: 5-10° C.) |
| Cc1c(Oc2ccc(F)c(-c3ncc(C(C)(O)c4cccc(CCC(=O)O)c4)[nH]3)c2)c(F)c(F)c2[nH]ccc12 (stereo not drawn) [Example 204, 3-(3-(1-(2-(5-((6,7-difluoro-4-methyl-1H-indol-5-yl)oxy)-2-fluorophenyl)-1H-imidazol-5-yl)-1-hydroxyethyl)phenyl) propanoic acid] | B (B: 5-10° C.) |
| Cc1c(Oc2ccc(F)c(-c3nc(Cc4cccc(CCC(=O)O)c4)c[nH]3)c2)ccc2[nH]ccc12 [Example 109, 3-(3-((2-(2-fluoro-5-((4-methyl-1H-indol-5-yl)oxy)phenyl)-1H-imidazol-4-yl)methyl)phenyl)propanoic acid] | B (B: 5-10° C.) |
| CC(c1c[nH]c(-c2cc(Oc3c(F)cc4[nH]ccc4c3S(C)(=N)=O)ccc2F)n1)c1cccc(CCC(=O)O)c1F (single isomer, unassigned) [Example 136D, 3-(2-fluoro-3-(1-(2-(2-fluoro-5-((6-fluoro-4-(S-methylsulfonimidoyl)-1H-indol-5-yl)oxy)phenyl)-1H-imidazol-4-yl)ethyl)phenyl)propanoic acid] | B (B: 5-10° C.) |
| CC(C#N)(c1cccc(CCC(=O)O)c1)c1cnc(-c2cc(Oc3nc4cc[nH]c4cc3F)ccc2F)[nH]1 (stereo not drawn) [Example 61, 3-(3-(1-cyano-1-(2-(2-fluoro-5-((6-fluoro-1H-pyrrolo[3,2-b]pyridin-5-yl)oxy)phenyl)-1H-imidazol-5-yl)ethyl)phenyl)propanoic acid] | B (B: 5-10° C.) |
| CC(CO)(c1cccc(CCC(=O)O)c1)c1c[nH]c(-c2cc(Oc3c(F)c(F)c4[nH]ccc4c3S(C)(=O)=O)ccc2F)n1 (stereo not drawn) [Example 69, 3-(3-(2-(2-(5-((6,7-difluoro-4-(methylsulfonyl)-1H-indol-5-yl)oxy)-2-fluorophenyl)-1H-imidazol-5-yl)-1-hydroxypropan-2-yl)phenyl)propanoic acid] | A (A: T ≥ 10° C.) |
